Data taken from patent US12208164B2, “Modular metal-organic polyhedra superassembly compositions” (UNM Rainforest Innovations, priority 2019, dated 2025).

Tested on: A549 cells
Assay: Targeted cell killing efficacy, viability of A549 cells
Assay type: cell-based, human
Details: incubated 2 hours, series of concentrations
Description: Cell viability of the constructed nanocarriers was assessed by CellTiter-Glo 2.0 assay. […] Then, 100 μL of the samples was added into a white 96-well plate. Subsequently, 100 μL CellTiter-Glo 2.0 reagent was dispensed into each well. The luminescence was recorded 10 minutes after addition of CellTiter-Glo 2.0 reagent by a BioTek microplate reader. Cell viability was calculated as a percentage of mammalian cells in the absence of nanocarriers.

COc1cccc2c1C(=O)c1c(O)c3c(c(O)c1C2=O)C[C@@](O)(C(=O)CO)C[C@@H]3O[C@H]1C[C@H](N)[C@H](O)[C@H](C)O1 [free DOX, doxorubicin]
toxicity to A549 cells: dose-dependent toxicity
